In paper PMC8071544, “Synthesis and Bioactivities of Marine Pyran-Isoindolone Derivatives as Potential Antithrombotic Agents” (Marine Drugs, 2021):

Experiments:
pro-uPA and plasminogen = biological target: T1, pro-uPA and plasminogen (Homo sapiens, UniProt P00747); test: Fibrinolytic activity in vitro (reciprocal activation of pro-uPA and plasminogen, urokinase activity by chromogenic substrate S-2444); format: biochemical; conditions: for EC50 (fibrinolytic activity): in vitro, slope of kinetic curve A405 nm, S-2444, mean of two independent experiments; for fibrinolytic activity (in words): compared with FGFC1
T1 construct: purchased Sigma Aldrich (China)
T1 sequence (P00747 20-810 limits assumed): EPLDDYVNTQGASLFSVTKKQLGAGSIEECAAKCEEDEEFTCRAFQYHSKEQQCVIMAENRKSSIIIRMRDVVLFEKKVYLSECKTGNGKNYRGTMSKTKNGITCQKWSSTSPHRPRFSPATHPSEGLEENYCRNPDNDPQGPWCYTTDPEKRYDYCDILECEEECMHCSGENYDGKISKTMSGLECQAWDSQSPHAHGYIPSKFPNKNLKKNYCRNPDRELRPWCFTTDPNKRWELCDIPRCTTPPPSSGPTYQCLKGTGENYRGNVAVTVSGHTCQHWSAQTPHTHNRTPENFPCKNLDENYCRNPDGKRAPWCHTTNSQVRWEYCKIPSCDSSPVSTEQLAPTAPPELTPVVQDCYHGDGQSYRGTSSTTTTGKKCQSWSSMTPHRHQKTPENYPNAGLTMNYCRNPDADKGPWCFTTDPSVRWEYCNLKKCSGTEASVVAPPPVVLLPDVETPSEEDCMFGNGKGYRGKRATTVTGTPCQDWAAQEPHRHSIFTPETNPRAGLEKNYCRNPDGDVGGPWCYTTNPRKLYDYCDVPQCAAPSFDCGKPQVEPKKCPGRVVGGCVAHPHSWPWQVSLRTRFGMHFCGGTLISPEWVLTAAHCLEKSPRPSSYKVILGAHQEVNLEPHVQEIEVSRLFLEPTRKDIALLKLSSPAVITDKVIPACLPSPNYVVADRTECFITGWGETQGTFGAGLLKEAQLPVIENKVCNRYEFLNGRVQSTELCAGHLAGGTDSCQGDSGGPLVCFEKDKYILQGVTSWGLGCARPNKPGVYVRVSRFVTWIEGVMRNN
Experimental: To evaluate the antithrombotic effect, all the synthesized FGFC1 derivatives were tested for their fibrinolytic activities in vitro. Fibrinolytic activity of each compound was expressed as 50% effective concentration (EC50), and FGFC1 was used as a positive control. The reciprocal activation of pro-uPA catalyzed plasminogen, which was measured based on urokinase activity by a chromogenic substrate S-2444. EC50 was calculated with the slope of kinetic curve of enzymatic reaction based on the reciprocal activation of pro-uPA and plasminogen (Figure 1 and Figure 2). The effect of introducing different hydrophobic moieties/groups to C-2, C-2′ and C-1′′ positions of FGFC1 was investigated by replacement of the protons on C2-OH/C2′-OH moieties and C1′′-COOH position, with methyl, ethyl, propyl, and bromo-substituted benzyl halide groups to yield derivatives F1–F7 (purity > 98% by HPLC analysis), which presented different urokinase activities and reciprocal activation of Pro-uPA-catalyzed plasminogen in vitro.
The fibrinolytic activities of compounds FGFC1 and derivatives F1–F7 were evaluated by plasmin method. Tris-HCl buffer solution (100 mmol/L, NaCl, pH 7.4), plasminogen (plg), BSA, and S-2444 were used as substrates. Derivatives F1–F7 dissolved in 0.05 mol/L Tris-HCl buffer containing NaCl (100 mmol/L) at pH 7.4 and the BSA used as a substrate.The concentrations of plg, BSA and S-2444 were 1.5 μmol/L, 5 μmol/L and 4 nmol/L, respectively. They were prepared in a 96-well microplate. After the predetermined sample solutions (compounds FGFC1 and F1–F7) were added, pro-uPA (20 μmol/L) was added into the 96-well microplate. The microplate was then cultivated at 37 °C for 60 min. The continuous variation trend of absorbance was determined for evaluation of fibrinolytic activity on the slope of the plots of A405 nm within 150 min. In the blank group, an equal volume of Tris-HCl solution was used as a blank control. All sample solutions were prepared by adding a small amount of DMSO (<5%, v/v) solution to dissolve the derivatives.

HeLa cells = test: MTT cytotoxicity assay on HeLa cells; format: cell-based, human; conditions: 0.25, 0.5, 1.0 mg/mL, Figure 2A
Experimental: (§1) The cytotoxicity of FGFC1 and derivative F6 on HeLa cell lines was screened by MTT assay. […] The introduction of substituted benzyl halide to the C-2, C-2′ and C-1″ position of FGFC1 decreased cytotoxicity, which increased with increasing concentration (0.25, 0.5, 1.0 mg/mL). Moreover, to evaluate the possible apoptosis of HeLa cells induced by F6, Fas/APO-1 (a type of cell-surface NGF/TNF receptor in cancer cell) assay was carried out (Figure 2B). To evaluate the immunogenic (inflammation) property, interleukin (IL-1) levels of derivative F6 was also tested by the IL-1 assays (Figure 2C). […] This meant that the ability of F6 to induce apoptosis was weaker than that of FGFC1. […] According to Figure 2B and Figure 2C, the negative effect of F6 on tissue cell was weaker than that of FGFC1.
HeLa (human cervical carcinoma) cells were incubated in medium (10% fetal bovine serum, 1% penicillin, 1% streptomycin) at 37 °C with 95% air and 5% CO2. Cells were passaged every 2–3 d and select exponential growth cells were used for further experiments.
The cell growth inhibitory activity of FGFC1 and derivative F6 on HeLa cell lines were determined by the MTT (3-(4,5-dimethylthiazol-2yl)-2,5-diphenyl tetrazolium bromide) assay as we previously reported. In addition, an equal volume of DMEM medium was added to the blank group.

Fas/Apo-1 = Fas/Apo-1 ELISA assay on HeLa cells; format: cell-based, human; conditions: Figure 2B, compared with blank and FGFC1
Experimental: as §1
Fas/Apo-1 assay was carried out according to the manufacturer’s protocol. A blank control group was set up. It was not added with the samples (FGFC1 and derivative F6) and the enzyme standard reagent, and the other steps were the same. The standard curve group and the sample group were tested. On the 96-well plate, the standard curve group was supplemented with 50 μL of the standard. […] After the addition of stop solution to reaction wells, the absorbance was recorded at OD 450 nm on an Enzyme-Labeled (microplate reader) Instrument after 15 min.

IL-1 = IL-1 ELISA assay on HeLa cells; format: cell-based, human; conditions: Figure 2C, compared with blank and FGFC1
Experimental: as §1
The cell culture method on the 96-well plate is in accordance with that in the MTT assay. The Elisa kit assay based on IL-1 of HeLa cells was consistent with the Fas/Apo-1 Elisa kit assay.

SMILES | EC50 (fibrinolytic activity) (pro-uPA and plasminogen) | further results
CC(C)=CCC/C(C)=C/CC[C@@]1(C)Oc2c(c(OCc3ccc(C#N)cc3)cc3c2CN(CCC[C@H](C(=O)OCc2ccc(C#N)cc2)N2Cc4c(cc(OCc5ccc(C#N)cc5)c5c4O[C@](C)(CC/C=C(\C)CCC=C(C)C)[C@H](O)C5)C2=O)C3=O)C[C@H]1O [F4] | 82.8 µM | 
CC(C)=CCC/C(C)=C/CC[C@@]1(C)Oc2c(c(OCc3ccc(OC(F)(F)F)cc3)cc3c2CN(CCC[C@H](C(=O)OCc2ccc(OC(F)(F)F)cc2)N2Cc4c(cc(OCc5ccc(OC(F)(F)F)cc5)c5c4O[C@](C)(CC/C=C(\C)CCC=C(C)C)[C@H](O)C5)C2=O)C3=O)C[C@H]1O [F5] | 133.3 µM | fibrinolytic activity (in words) (pro-uPA and plasminogen): markedly decreased the fibrinolytic activity
CC(C)=CCC/C(C)=C/CC[C@@]1(C)Oc2c(c(OCc3ccc(Br)cc3)cc3c2CN(CCC[C@H](C(=O)OCc2ccc(Br)cc2)N2Cc4c(cc(OCc5ccc(Br)cc5)c5c4O[C@](C)(CC/C=C(\C)CCC=C(C)C)[C@H](O)C5)C2=O)C3=O)C[C@H]1O [F6] | 42.3 µM | fibrinolytic activity relative to FGFC1 (pro-uPA and plasminogen; ratio of EC50 vs FGFC1): 2.72 fold; cytotoxicity on HeLa cell lines (HeLa cells): moderate cytotoxicity; expression level of Fas (Fas/Apo-1): remarkably higher than that of the blank, but it was less than that of FGFC1; expression level of IL-1 (IL-1): obviously higher than that of blank, but it was less than that of FGFC1
CC(C)=CCC/C(C)=C/CC[C@@]1(C)Oc2c(c(OCc3ccccc3Br)cc3c2CN(CCC[C@H](C(=O)OCc2ccccc2Br)N2Cc4c(cc(OCc5ccccc5Br)c5c4O[C@](C)(CC/C=C(\C)CCC=C(C)C)[C@H](O)C5)C2=O)C3=O)C[C@H]1O [F7] | 119.6 µM | fibrinolytic activity (in words) (pro-uPA and plasminogen): retained fibrinolytic activity

Further lines, with some results ahead:

EC50 (fibrinolytic activity) (pro-uPA and plasminogen) | SMILES | further results
59.7 µM | COC(=O)[C@@H](CCCN1Cc2c(cc(OC)c3c2O[C@](C)(CC/C=C(\C)CCC=C(C)C)[C@H](O)C3)C1=O)N1Cc2c(cc(OC)c3c2O[C@](C)(CC/C=C(\C)CCC=C(C)C)[C@H](O)C3)C1=O [F1] | 
87.1 µM | CCOC(=O)[C@@H](CCCN1Cc2c(cc(OCC)c3c2O[C@](C)(CC/C=C(\C)CCC=C(C)C)[C@H](O)C3)C1=O)N1Cc2c(cc(OCC)c3c2O[C@](C)(CC/C=C(\C)CCC=C(C)C)[C@H](O)C3)C1=O [F2] | 
66.6 µM | CCCOC(=O)[C@@H](CCCN1Cc2c(cc(OCCC)c3c2O[C@](C)(CC/C=C(\C)CCC=C(C)C)[C@H](O)C3)C1=O)N1Cc2c(cc(OCCC)c3c2O[C@](C)(CC/C=C(\C)CCC=C(C)C)[C@H](O)C3)C1=O [F3] | 
115.0 µM | CC(C)=CCC/C(C)=C/CC[C@@]1(C)Oc2c(c(O)cc3c2CN(CCC[C@H](C(=O)O)N2Cc4c(cc(O)c5c4O[C@](C)(CC/C=C(\C)CCC=C(C)C)[C@H](O)C5)C2=O)C3=O)C[C@H]1O [FGFC1, 2,5-Bis-[8-(4,8-dimethyl-nona-3,7-dienyl)-5,7-dihydroxy-8-methyl-3-keto-1,2,7,8-teraahydro-6H-pyran[a]isoindol-2-yl]-pentanoic acid, reference compound] | cytotoxicity on HeLa cell lines (HeLa cells): moderate cytotoxicity
